Data reported in patent publication US20050014849A1, “Antifungal phenylethylene” (priority 2001, published 2005).
≈ marks a conversion by molar mass, not a printed value. Read-outs that look alike come from different tables or passages of the source.

Assays:
[1] = system: C. viswanathii ATCC 22981; experiment: Broth macrodilution MIC/MFC; assay type: cell-based, Candida viswanathii
Experimental: (§1) TMPN was screened against yeasts by the broth macrodilution assay according to the NCCLS [7]. Yeasts were suspended and diluted as recommended to yield final inocula ranging from 0.5-2.5×10^3 cfu/ml. Tests were performed in sterile 12 by 75 mm plastic tubes containing two-fold dilutions of TMPN in 0.165 M morpholinepropanesulfonic acid buffered RPMI 1640 medium (pH 7.0). One tube was again left drug free (but contained an equivalent volume of DMSO) for a turbidity control. Tubes were incubated without agitation at the appropriate temperature (see Fungal Strains section above). MICs were determined after 72 h for Cryptococcus and after 48 h for other yeast genera. The MIC was defined as the lowest concentration of TMPN that inhibited all visible growth of the test organism (optically clear).
(§2) Minimum fungicidal concentrations (MFCs) were determined by subculturing 0.1 ml from each tube with no visible growth in the MIC broth macrodilution series onto the appropriate drug-free plates (see Fungal Strains section above).

[2] = system: R. nigracans (ASU culture collection); experiment: Broth macrodilution MIC/MFC, filamentous fungi; assay type: cell-based, Rhizopus nigracans
Experimental: Susceptibility testing of filamentous fungi was also conducted. Broth macrodilution susceptibility testing of P. lilacinus, Rhizopus spp. and Aspergillus spp. was performed in accordance with a proposed standardized procedure with slight modification. To induce conidium and sporangiospore formation, fungi were grown on PDA slants at 35° C. for 6 days (P. lilacinus, Rhizopus spp., all Aspergillus species except A. nidulans) or 3 days (A. nidulans). Fungal slants were covered with sterile 0.85% NaCl (P. lilacinus, Rhizopus spp., all Aspergillus species except A. nidulans) or 0.05% Tween 80 (A. nidulans), and suspensions were made by gently probing the colonies with the tip of a sterile Pasteur pipette. The resulting mixture of hyphal fragments and conidia or sporangiospores was withdrawn and transferred to a sterile clear microcentrifuge tube, and heavy particles were allowed to settle for 10 min. […] Susceptibility to TMPN was then determined by broth macrodilution as described above for yeast isolates. […]
as §2

C. neoformans ATCC 90112 = experiment: Broth macrodilution MIC/MFC; assay type: cell-based, Cryptococcus neoformans; details: for MFC / MIC: Cryptococcus neoformans
Experimental: as §1, §2
(§3) Possible host effects were also evaluated. Broth macrodilution assays were performed with RPMI medium prepared at pH 5, pH 6, and pH 7, and in RPMI medium with and without 50% normal human serum (Lampire Biological Labs). The pH experiments were performed twice on separate days.

C. ater ATCC 14247 = experiment: Broth macrodilution MIC/MFC; assay type: cell-based, Cryptococcus ater
Experimental: as §1, §2

C. tropicalis (9) = experiment: Broth macrodilution MIC/MFC; assay type: cell-based, Candida tropicalis
Experimental: as §1, §2

C. neoformans ATCC 32045 = experiment: Broth macrodilution MIC/MFC; assay type: cell-based, Cryptococcus neoformans
Experimental: as §1, §2

C. neoformans ATCC 66031 = experiment: Broth macrodilution MIC/MFC; assay type: cell-based, Cryptococcus neoformans
Experimental: as §1, §2

C. neoformans (24) = experiment: Broth macrodilution MIC/MFC; assay type: cell-based, Cryptococcus neoformans
Experimental: as §1, §2

C. neoformans ATCC 14116 = experiment: Broth macrodilution MIC/MFC; assay type: cell-based, Cryptococcus neoformans
Experimental: as §1, §2

T. inkin ATCC 18020 = experiment: Broth macrodilution MIC/MFC; assay type: cell-based, Trichosporon inkin; details: for MFC: Trichosporon inkin ATCC 18020; for MIC: Trichosporon inkin
Experimental: as §1, §2, §3

C. albicans (ATCC 90028) = experiment: Frequency of occurrence of spontaneous mutants; assay type: cell-based, Candida albicans; details: four times the broth macrodilution MIC
Experimental: Determination of the frequency of occurrence of spontaneous mutants was performed as previously described. Overnight cultures of C neoformans (ATCC 90112), C. albicans (ATCC 90028) and Trichosporon inkin (ATCC 18020) were diluted to an OD530 nm=0.3. 0.1 ml of each preparation was spread onto SDA plates containing four or eight times the broth macrodilution MIC of TMPN. The starting inoculum for each organism was also diluted and plated onto drug-free SDA plates for determination of cfu/ml. After a 48 h incubation at the appropriate temperature (see Fungal Strains section above), the number of colonies on drug-supplemented SDA was counted. The frequency of occurrence of spontaneous mutants was calculated by dividing the number of colonies on drug-containing plates by the number of colonies in the inoculum. When no colonies were visualized on drug-containing plates, the calculation was (<) 1 colony divided by the number of colonies in the inoculum.

[3] = ATCC90112, Cryptococcus neoformans ATCC 90112, 20 μg/ml bovine serum albumin
[4] = ATCC90112, Cryptococcus neoformans ATCC 90112, 40 μg/ml bovine serum albumin
[5] = ATCC90112, Cryptococcus neoformans ATCC 90112, no bovine serum albumin
[6] = ATCC90112, Cryptococcus neoformans ATCC 90112, no serum
[7] = ATCC90112, pH 5, Cryptococcus neoformans ATCC 90112, pH 5
[8] = ATCC90112, pH 5, Cryptococcus neoformans ATCC 90112, pH 5, repeat experiment
[9] = ATCC90112, pH 6, Cryptococcus neoformans ATCC 90112, pH 6
[10] = ATCC90112, pH 6, Cryptococcus neoformans ATCC 90112, pH 6, repeat experiment
[11] = ATCC90112, pH 7, Cryptococcus neoformans ATCC 90112, pH 7
[12] = ATCC90112, pH 7, Cryptococcus neoformans ATCC 90112, pH 7, repeat experiment

Q: Which results are given for COc1cc(C=C[N+](=O)[O-])cc(OC)c1OC [TMPN, 1-(3′,4′,5′-trimethoxyphenyl)-2-nitro-ethylene]?
A: MFC Range [1]: >64 µg/mL; MIC Range [1]: 32 µg/mL (≈ 134 µM); MFC Range [2]: >64 µg/mL; MIC Range [2]: 32 µg/mL (≈ 134 µM); MFC Range (C. neoformans ATCC 90112; C. neoformans ATCC 90112): 4 µg/mL (≈ 16.7 µM); MIC Range (C. neoformans ATCC 90112; C. neoformans ATCC 90112): 2 µg/mL (≈ 8.36 µM); MFC (C. neoformans ATCC 90112; [3]): 4 µg/mL (≈ 16.7 µM); MIC (C. neoformans ATCC 90112; [3]): 4 µg/mL (≈ 16.7 µM); MFC (C. neoformans ATCC 90112; [4]): 4 µg/mL (≈ 16.7 µM); MIC (C. neoformans ATCC 90112; [4]): 4 µg/mL (≈ 16.7 µM); MIC (C. neoformans ATCC 90112; ATCC90112, Cryptococcus neoformans ATCC 90112, 50% human serum): > 64 µg/mL; MFC (C. neoformans ATCC 90112; [5]): 4 µg/mL (≈ 16.7 µM); MIC (C. neoformans ATCC 90112; [5]): 2 µg/mL (≈ 8.36 µM); MFC (C. neoformans ATCC 90112; [6]): 4 µg/mL (≈ 16.7 µM); MIC (C. neoformans ATCC 90112; [6]): 2 µg/mL (≈ 8.36 µM); MFC (C. neoformans ATCC 90112; [7]): 4 µg/mL (≈ 16.7 µM); MIC (C. neoformans ATCC 90112; [7]): 2 µg/mL (≈ 8.36 µM); MFC (C. neoformans ATCC 90112; [8]): 2 µg/mL (≈ 8.36 µM); MIC (C. neoformans ATCC 90112; [8]): 1 µg/mL (≈ 4.18 µM); MFC (C. neoformans ATCC 90112; [9]): 4 µg/mL (≈ 16.7 µM); MIC (C. neoformans ATCC 90112; [9]): 4 µg/mL (≈ 16.7 µM); MFC (C. neoformans ATCC 90112; [10]): 4 µg/mL (≈ 16.7 µM); MIC (C. neoformans ATCC 90112; [10]): 4 µg/mL (≈ 16.7 µM); MFC (C. neoformans ATCC 90112; [11]): 4 µg/mL (≈ 16.7 µM); MIC (C. neoformans ATCC 90112; [11]): 2 µg/mL (≈ 8.36 µM); MFC (C. neoformans ATCC 90112; [12]): 4 µg/mL (≈ 16.7 µM); MIC (C. neoformans ATCC 90112; [12]): 2 µg/mL (≈ 8.36 µM); MFC Range (C. ater ATCC 14247): 16 µg/mL (≈ 66.9 µM); MIC Range (C. ater ATCC 14247): 8 µg/mL (≈ 33.4 µM); MIC Range (C. tropicalis (9)): 32 to 64 µg/mL; MFC Range (C. neoformans ATCC 32045): 4 µg/mL (≈ 16.7 µM); MIC Range (C. neoformans ATCC 32045): 4 µg/mL (≈ 16.7 µM); MFC Range (C. neoformans ATCC 66031): 4 µg/mL (≈ 16.7 µM); MIC Range (C. neoformans ATCC 66031): 2 µg/mL (≈ 8.36 µM); MFC 50% (MFC at which 50% of the strains are killed) (C. neoformans (24); C. neoformans (24)): 8 µg/mL; MFC 90% (MFC at which 90% of the strains are killed) (C. neoformans (24); C. neoformans (24)): 16 µg/mL; MFC Range (C. neoformans (24); C. neoformans (24)): 4 to 32 µg/mL; MIC Range (C. neoformans (24); C. neoformans (24)): 2 to 16 µg/mL; share of isolates with MFC/MIC ratio <2 (C. neoformans (24); C. neoformans clinical isolates): 96%; share of isolates with MFC/MIC ratio ≦2 (C. neoformans (24); Cryptococcus neoformans clinical isolates): 96%; MIC50 (C. neoformans (24); Cryptococcus neoformans, C. neoformans (24), read-out: MIC 50% (MIC at which 50% of the strains are inhibited)): 4 µg/mL (≈ 16.7 µM); MIC90 (C. neoformans (24); Cryptococcus neoformans, C. neoformans (24), read-out: MIC 90% (MIC at which 90% of the strains are inhibited)): 8 µg/mL (≈ 33.4 µM); MFC Range (C. neoformans ATCC 14116): 16 µg/mL (≈ 66.9 µM); MIC Range (C. neoformans ATCC 14116): 8 µg/mL (≈ 33.4 µM); MFC (T. inkin ATCC 18020; ATCC18020, pH 6, pH6, read-out: MFC): 16 µg/mL (≈ 66.9 µM); MFC (T. inkin ATCC 18020; ATCC18020, pH 7, pH7, read-out: MFC): 16 µg/mL (≈ 66.9 µM); MFC (T. inkin ATCC 18020; ATCC18020, no serum, read-out: MFC): 16 µg/mL (≈ 66.9 µM); MFC (T. inkin ATCC 18020; ATCC18020, pH 5, read-out: MFC): 8 µg/mL (≈ 33.4 µM); MFC Range (T. inkin ATCC 18020; T. inkin ATCC 18020): 16 µg/mL (≈ 66.9 µM); MIC Range (T. inkin ATCC 18020; T. inkin ATCC 18020): 8 µg/mL (≈ 33.4 µM); MFC (T. inkin ATCC 18020; pH 5, repeat experiment): 8 µg/mL (≈ 33.4 µM); MFC (T. inkin ATCC 18020; pH6, repeat experiment): 16 µg/mL (≈ 66.9 µM); MFC (T. inkin ATCC 18020; pH7, repeat experiment): 16 µg/mL (≈ 66.9 µM); MIC (T. inkin ATCC 18020; ATCC18020, Trichosporon inkin ATCC 18020, 50% human serum): > 64 µg/mL; MIC (T. inkin ATCC 18020; ATCC18020, Trichosporon inkin ATCC 18020, no serum): 8 µg/mL (≈ 33.4 µM); MIC (T. inkin ATCC 18020; ATCC18020, pH 5, Trichosporon inkin ATCC 18020, pH 5): 4 µg/mL (≈ 16.7 µM); MIC (T. inkin ATCC 18020; ATCC18020, pH 5, Trichosporon inkin ATCC 18020, pH 5, repeat experiment): 4 µg/mL (≈ 16.7 µM); MIC (T. inkin ATCC 18020; ATCC18020, pH 6, Trichosporon inkin ATCC 18020, pH6): 8 µg/mL (≈ 33.4 µM); MIC (T. inkin ATCC 18020; ATCC18020, pH 6, Trichosporon inkin ATCC 18020, pH6, repeat experiment): 8 µg/mL (≈ 33.4 µM); MIC (T. inkin ATCC 18020; ATCC18020, pH 7, Trichosporon inkin ATCC 18020, pH7): 8 µg/mL (≈ 33.4 µM); MIC (T. inkin ATCC 18020; ATCC18020, pH 7, Trichosporon inkin ATCC 18020, pH7, repeat experiment): 8 µg/mL (≈ 33.4 µM); frequency of occurrence of single-step resistant mutants (C. albicans (ATCC 90028)): ≤ 10^−6
